This note sets out measurements from patent US20240109865A1, “INDAZOLE COMPOUNDS AS KINASE INHIBITORS” (TYRA BIOSCIENCES, INC., priority 2020, published 2024).

One experiment deals with FGFR4 (Homo sapiens (Human), UniProt P22455). The experiment in a line: Kinase assay, binding constants (Kd), kinase-tagged T7 phage, qPCR. A digest of the protocol: (§1)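 Competition binding: kinase-tagged T7 phage lysates mixed with immobilized biotinylated ligand on streptavidin beads plus compound (11-point 3-fold dilution series, 0.9% DMSO final). Bound kinase eluted with free ligand and quantified by qPCR. Kd from Hill equation fit, slope fixed at −1.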
Sequence of FGFR4 (P22455 22-802): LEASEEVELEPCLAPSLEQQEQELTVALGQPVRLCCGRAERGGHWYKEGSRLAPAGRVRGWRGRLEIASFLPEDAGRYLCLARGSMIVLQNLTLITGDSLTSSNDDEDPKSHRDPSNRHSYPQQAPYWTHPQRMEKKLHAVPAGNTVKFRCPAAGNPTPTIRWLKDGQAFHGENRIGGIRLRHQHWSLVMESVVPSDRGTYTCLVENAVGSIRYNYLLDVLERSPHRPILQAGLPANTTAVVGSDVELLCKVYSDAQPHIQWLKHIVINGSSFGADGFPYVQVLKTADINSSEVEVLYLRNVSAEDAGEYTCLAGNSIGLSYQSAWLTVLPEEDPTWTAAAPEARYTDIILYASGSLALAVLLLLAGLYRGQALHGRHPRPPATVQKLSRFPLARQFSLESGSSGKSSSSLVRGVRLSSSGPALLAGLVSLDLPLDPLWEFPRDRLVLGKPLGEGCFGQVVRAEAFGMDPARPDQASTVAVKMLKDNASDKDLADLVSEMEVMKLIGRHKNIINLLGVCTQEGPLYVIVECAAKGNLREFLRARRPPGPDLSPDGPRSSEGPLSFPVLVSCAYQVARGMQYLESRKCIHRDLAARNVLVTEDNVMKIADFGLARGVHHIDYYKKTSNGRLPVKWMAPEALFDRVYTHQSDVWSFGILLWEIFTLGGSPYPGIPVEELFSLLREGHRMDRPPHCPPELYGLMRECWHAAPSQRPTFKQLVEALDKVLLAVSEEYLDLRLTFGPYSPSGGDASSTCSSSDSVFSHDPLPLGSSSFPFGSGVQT
For orientation: In qPCR the cycle at which signal appears reflects the starting amount.

The next experiment concerns the target FGFR1 (Homo sapiens (Human), UniProt P11362). Described as above. A digest of the protocol: as §1
A further experiment has as its target FGFR3 (Homo sapiens (Human), UniProt P22607). The experiment is described as above. The gist of the method: as §1
The target in another experiment is FGFR3 (V555M) (Homo sapiens (Human), UniProt P22607, V555M). The description is as above. The settings on record: V555M mutant. A digest of the protocol: as §1
Sequence of FGFR3 (V555M) (P22607 23-806 V555M): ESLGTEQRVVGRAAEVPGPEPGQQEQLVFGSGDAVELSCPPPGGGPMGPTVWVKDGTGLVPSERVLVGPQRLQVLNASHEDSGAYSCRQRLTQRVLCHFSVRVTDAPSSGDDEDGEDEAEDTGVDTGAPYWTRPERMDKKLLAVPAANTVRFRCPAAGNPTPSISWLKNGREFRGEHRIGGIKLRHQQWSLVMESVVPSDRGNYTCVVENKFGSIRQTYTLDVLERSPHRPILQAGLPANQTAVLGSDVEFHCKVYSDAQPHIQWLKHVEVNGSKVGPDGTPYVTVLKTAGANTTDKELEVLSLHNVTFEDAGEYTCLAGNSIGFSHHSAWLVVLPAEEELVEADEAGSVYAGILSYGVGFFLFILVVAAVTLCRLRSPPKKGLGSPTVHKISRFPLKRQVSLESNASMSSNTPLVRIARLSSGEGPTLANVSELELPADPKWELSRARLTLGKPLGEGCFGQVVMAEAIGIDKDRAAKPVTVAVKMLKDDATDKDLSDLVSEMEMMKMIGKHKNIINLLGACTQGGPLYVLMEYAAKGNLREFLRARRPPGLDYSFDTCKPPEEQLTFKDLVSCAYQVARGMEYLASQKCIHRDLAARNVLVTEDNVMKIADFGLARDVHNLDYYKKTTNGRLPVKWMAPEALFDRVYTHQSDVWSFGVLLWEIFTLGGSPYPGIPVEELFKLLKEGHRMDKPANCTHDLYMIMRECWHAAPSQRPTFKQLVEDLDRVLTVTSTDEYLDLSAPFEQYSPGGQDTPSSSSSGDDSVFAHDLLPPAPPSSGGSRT
The target of the next experiment is FGFR2 (Homo sapiens (Human), UniProt P21802). Described as above. The gist of the method:
as §1

The target in experiment [1] is FGFR3-BAIAP2L1 Ba/F3 cells (Homo sapiens, UniProt P22607). The experiment in a line: Ba/F3 cell viability assay (CellTiter-Glo 2.0), FGFR3-BAIAP2L1 Ba/F3. It is filed as cell-based. The settings on record: for Ba/F3 FGFR1/FGFR3 Selectivity: FGFR3 > FGFR1 selectivity ratio in Ba/F3 FGFR fusion cell based assays; for IC50: read-out: Ba/F3 Cells FGFR3 (IC50 nM), FGFR3-BAIAP2L1 Ba/F3 cells, 48 hours, Cell Titer Glo 2.0. An excerpt:
(§2) Experimental Purpose: Recombinant kinase fusions are transduced into parental Ba/F3, which becomes dependent upon this constitutive kinase activity for IL3-independent survival. Inhibition of kinase activity leads to cell death, which is monitored using CellTiter-Glo® 2.0 (Promega) which measures intracellular ATP concentration that in turn serves as a marker for viability. FGFR1-BCR Ba/F3 and FGFR3-BAIAP2L1 Ba/F3 were obtained from Advanced Cellular Dynamics (Seattle, WA)
(§3) Cell Viability Assay Procedure: Cell Titer-Glo® 2.0 Luminescent cell viability assay reagent was purchased from Promega (Madison, WI). FGFR1-BCR Ba/F3 and FGFR3-BAIAP2L1 Ba/F3 cells were cultured in RPMI1640 media supplemented with 10% fetal bovine serum. Cultures were maintained at 37° C. in a humidified atmosphere of 5% C02 and 95% air.
(§4) Cells were plated in 96-well clear bottom/white plates (Corning #3903) at 10,000 cells/well in 100 μl of media, incubated overnight. The next day, test compound DMSO stock solutions were made at 10 mM and 2 μM final concentration. Compounds were then added to cells in a 9-dose, 10-fold dilution series starting at 30 μM with an HP 300e Digital Dispenser (each dose was applied in triplicate). DMSO was backfilled to each well up to 301 nL total volume of test compound+DMSO, and a total of 301 nL DMSO was added to a control/no test compound well in triplicate. The cells in cell culture plates were incubated with the compounds at 37° C. and 5% C02 for 48 hours. Then 50 μl of Cell Titer Glo 2.0 reagent was added to each well of the cell culture plates. The contents were covered from light and mixed on an orbital shaker at room temperature for 10 min. Luminescence was recorded by a Synergy H1 Microplate Reader (Biotek, Winooski, VT). Cells were assessed as a percentage of DMSO only treated control cells. Curves were plotted and IC50 values were calculated using the GraphPad Prism 8 program based on a sigmoidal dose-response equation (4 parameter).

Another experiment addresses FGFR1-BCR Ba/F3 cells (Homo sapiens, UniProt P11362). Kind of experiment: Ba/F3 cell viability assay (CellTiter-Glo 2.0), FGFR1-BCR Ba/F3. Type of experiment: cell-based. The settings on record: read-out: Ba/F3 Cells FGFR1 (IC50 nM), 48 hours, Cell Titer Glo 2.0.
Text: as §2, §3, §4
Background: Cellular ATP, detected with luciferase, serves as a proxy for viable cell number.

Each structure is given as a SMILES string.

Sequence of FGFR1-BCR Ba/F3 cells (P11362 22-822 limits assumed, change not shown): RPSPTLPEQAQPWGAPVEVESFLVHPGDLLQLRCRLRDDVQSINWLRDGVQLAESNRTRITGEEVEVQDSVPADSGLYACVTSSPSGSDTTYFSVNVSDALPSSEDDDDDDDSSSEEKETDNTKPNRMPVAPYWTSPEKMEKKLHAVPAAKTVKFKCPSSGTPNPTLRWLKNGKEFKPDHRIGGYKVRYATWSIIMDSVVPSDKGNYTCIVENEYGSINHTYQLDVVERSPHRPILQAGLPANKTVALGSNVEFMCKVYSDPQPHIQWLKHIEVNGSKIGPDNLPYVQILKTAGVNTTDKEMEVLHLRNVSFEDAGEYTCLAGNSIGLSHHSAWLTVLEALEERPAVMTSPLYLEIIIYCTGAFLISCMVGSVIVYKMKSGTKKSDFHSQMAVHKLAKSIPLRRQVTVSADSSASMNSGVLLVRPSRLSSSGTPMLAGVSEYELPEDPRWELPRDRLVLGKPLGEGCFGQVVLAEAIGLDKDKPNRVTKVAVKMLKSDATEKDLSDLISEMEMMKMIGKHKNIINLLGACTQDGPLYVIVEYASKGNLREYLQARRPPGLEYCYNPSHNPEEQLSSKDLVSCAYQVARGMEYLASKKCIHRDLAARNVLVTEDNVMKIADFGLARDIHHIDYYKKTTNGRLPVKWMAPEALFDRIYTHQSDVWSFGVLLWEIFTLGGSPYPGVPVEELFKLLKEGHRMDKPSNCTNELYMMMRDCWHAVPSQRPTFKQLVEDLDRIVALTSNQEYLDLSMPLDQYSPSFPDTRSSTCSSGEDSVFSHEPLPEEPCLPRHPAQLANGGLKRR
Sequence of FGFR1 (P11362 22-822): as the sequence (P11362 22-822 limits assumed, change not shown) above
Sequence of FGFR3-BAIAP2L1 Ba/F3 cells (P22607 23-806 limits assumed, change not shown): as the sequence (P22607 23-806 V555M) above, with M533V counted along it
Sequence of FGFR3 (P22607 23-806): as the sequence (P22607 23-806 V555M) above, with M533V counted along it
Sequence of FGFR2 (P21802 22-821): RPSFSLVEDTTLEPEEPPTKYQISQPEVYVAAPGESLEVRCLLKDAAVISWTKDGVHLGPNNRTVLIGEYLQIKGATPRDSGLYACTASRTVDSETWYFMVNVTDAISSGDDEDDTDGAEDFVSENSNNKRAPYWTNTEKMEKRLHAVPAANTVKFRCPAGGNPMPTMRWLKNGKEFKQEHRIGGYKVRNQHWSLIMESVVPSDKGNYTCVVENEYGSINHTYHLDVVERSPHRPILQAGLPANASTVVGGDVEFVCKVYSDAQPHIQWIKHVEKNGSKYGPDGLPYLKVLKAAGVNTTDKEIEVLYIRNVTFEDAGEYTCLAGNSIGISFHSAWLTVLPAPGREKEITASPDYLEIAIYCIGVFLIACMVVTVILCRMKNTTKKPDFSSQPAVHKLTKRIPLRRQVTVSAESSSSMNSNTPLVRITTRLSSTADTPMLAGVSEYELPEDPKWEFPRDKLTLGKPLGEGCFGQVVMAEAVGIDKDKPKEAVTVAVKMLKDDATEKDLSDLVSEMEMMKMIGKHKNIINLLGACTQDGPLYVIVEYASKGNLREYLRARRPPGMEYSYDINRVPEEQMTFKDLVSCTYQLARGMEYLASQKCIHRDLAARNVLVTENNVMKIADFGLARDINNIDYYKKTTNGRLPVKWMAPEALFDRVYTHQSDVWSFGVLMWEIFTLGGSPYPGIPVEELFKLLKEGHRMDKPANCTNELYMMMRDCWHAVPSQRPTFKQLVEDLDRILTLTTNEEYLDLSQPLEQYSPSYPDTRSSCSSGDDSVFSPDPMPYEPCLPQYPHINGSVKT

For the molecule `C[C@@H](Oc1ccc2[nH]nc(-c3cnn(C4CCN(C(=O)N(C)C)CC4)c3)c2c1)c1c(Cl)cncc1Cl` [Example 67, 4-[4-[5-[(1R)-1-(3,5-dichloro-4-pyridyl)ethoxy]-1H-indazol-3-yl]pyrazol-1-yl]-N,N-dimethyl-piperidine-1-carboxamide], the Kd on FGFR4, at FGFR1, on FGFR3, at FGFR3 (V555M) and at FGFR2 was 1 to 20 nM each time. Moreover, in experiment [1], the “Ba/F3 FGFR1/FGFR3 Selectivity” value is 12. In addition, the IC50 in experiment [1] lay in the range of 1 to 20 nM; at FGFR1-BCR Ba/F3 cells, 20 to 100 nM.
`C[C@@H](Oc1ccc2[nH]nc(-c3cnn(C4CCN(C(N)=O)CC4)c3)c2c1)c1c(Cl)cncc1Cl` [Example 68, 4-[4-[5-[(1R)-1-(3,5-dichloro-4-pyridyl)ethoxy]-1H-indazol-3-yl]pyrazol-1-yl]piperidine-1-carboxamide]: the Kd at FGFR4, at FGFR1, at FGFR3, on FGFR3 (V555M) and at FGFR2 was 1 to 20 nM in each case. Moreover, the IC50 in experiment [1] was in the range of 1 to 20 nM; on FGFR1-BCR Ba/F3 cells, 100 to 300 nM.
Regarding `C[C@@H](Oc1ccc2[nH]nc(-c3ccc(C4CCN(S(C)(=O)=O)CC4)nc3)c2c1)c1c(Cl)cncc1Cl` [Example 70, 5-[(1R)-1-(3,5-dichloro-4-pyridyl)ethoxy]-3-[6-(1-methylsulfonyl-4-piperidyl)-3-pyridyl]-1H-indazole], the equilibrium dissociation constant (Kd) on FGFR4, at FGFR1, on FGFR3, at FGFR3 (V555M) and on FGFR2 was 1 to 20 nM throughout. For the same molecule, in experiment [1], the “Ba/F3 FGFR1/FGFR3 Selectivity” value was 20. Further, the IC50 in experiment [1] was in the range of 1 to 20 nM; on FGFR1-BCR Ba/F3 cells, 20 to 100 nM.
Take `C[C@@H](Oc1ccc2[nH]nc(-c3ccc(C4CCN(C(=O)N(C)C)CC4)nc3)c2c1)c1c(Cl)cncc1Cl` [Example 71, 4-[5-[5-[(1R)-1-(3,5-dichloro-4-pyridyl)ethoxy]-1H-indazol-3-yl]-2-pyridyl]-N,N-dimethyl-piperidine-1-carboxamide]: the equilibrium dissociation constant (Kd) at FGFR4, on FGFR1, at FGFR3, at FGFR3 (V555M) and on FGFR2 was 1 to 20 nM each time. Moreover, in experiment [1], the “Ba/F3 FGFR1/FGFR3 Selectivity” value was determined as 15. Moreover, the IC50 in experiment [1] lay in the range of 1 to 20 nM; on FGFR1-BCR Ba/F3 cells, 20 to 100 nM.
Take `C[C@@H](Oc1ccc2[nH]nc(-c3ccc(C4CCN(C(N)=O)CC4)nc3)c2c1)c1c(Cl)cncc1Cl` [Example 72, 4-[5-[5-[(1R)-1-(3,5-dichloro-4-pyridyl)ethoxy]-1H-indazol-3-yl]-2-pyridyl]piperidine-1-carboxamide]: the Kd on FGFR4, on FGFR1, at FGFR3, on FGFR3 (V555M) and on FGFR2 was 1 to 20 nM throughout. The “Ba/F3 FGFR1/FGFR3 Selectivity” value in experiment [1] is 15. The IC50 in experiment [1] lay within 1 to 20 nM; at FGFR1-BCR Ba/F3 cells it was 20 to 100 nM.
For `C[C@@H](Oc1ccc2[nH]nc(-c3ccc(N4CC5(CNC5)OC4=O)nc3)c2c1)c1c(Cl)cncc1Cl` [Example 73, 7-[5-[5-[(1R)-1-(3,5-dichloro-4-pyridyl)ethoxy]-1H-indazol-3-yl]-2-pyridyl]-5-oxa-2,7-diazaspiro[3.4]octan-6-one], the equilibrium dissociation constant (Kd) (commonly the concentration at which binding is half-saturated) on FGFR4 lay in the range of 1 to 20 nM; on FGFR1 it was 1 to 20 nM; on FGFR3, 1 to 20 nM; at FGFR3 (V555M) it was 1 to 20 nM; at FGFR2, 20 to 100 nM. Moreover, the “Ba/F3 FGFR1/FGFR3 Selectivity” value in experiment [1] came to 11. Besides, the IC50 fell in the range of 20 to 100 nM in experiment [1] and 100 to 300 nM at FGFR1-BCR Ba/F3 cells.
With `C[C@@H](Oc1ccc2[nH]nc(-c3ccc(N4CC5(CCNCC5)OC4=O)nc3)c2c1)c1c(Cl)cncc1Cl` [Example 74, 3-[5-[5-[(1R)-1-(3,5-dichloro-4-pyridyl)ethoxy]-1H-indazol-3-yl]-2-pyridyl]-1-oxa-3,8-diazaspiro[4.5]decan-2-one], the Kd at FGFR4, on FGFR1, on FGFR3, on FGFR3 (V555M) and at FGFR2 was 1 to 20 nM each time. Also, the “Ba/F3 FGFR1/FGFR3 Selectivity” value in experiment [1] is given as 6. Further, the IC50 in experiment [1] was 20 to 100 nM; on FGFR1-BCR Ba/F3 cells, 100 to 300 nM.
As for `C[C@@H](Oc1ccc2[nH]nc(-c3ccc(N4CC5(CCN(C)CC5)OC4=O)nc3)c2c1)c1c(Cl)cncc1Cl` [Example 75, 3-[5-[5-[(1R)-1-(3,5-dichloro-4-pyridyl)ethoxy]-1H-indazol-3-yl]-2-pyridyl]-8-methyl-1-oxa-3,8-diazaspiro[4.5]decan-2-one], the Kd at FGFR4, on FGFR1, at FGFR3, on FGFR3 (V555M) and on FGFR2 was 1 to 20 nM throughout. Besides, the “Ba/F3 FGFR1/FGFR3 Selectivity” value in experiment [1] was found to be 14. Moreover, the results for the IC50 (in experiment [1]; on FGFR1-BCR Ba/F3 cells) were 1 to 20 nM and 100 to 300 nM, respectively.
`C[C@@H](Oc1ccc2[nH]nc(-c3ccc(N4CCC5(CC4)CCS(=O)(=O)C5)nc3)c2c1)c1c(Cl)cncc1Cl` [Example 78, 8-[5-[5-[(1R)-1-(3,5-dichloro-4-pyridyl)ethoxy]-1H-indazol-3-yl]-2-pyridyl]-2λ^6-thia-8-azaspiro[4.5]decane 2,2-dioxide]: the Kd at FGFR4, at FGFR1, at FGFR3, on FGFR3 (V555M) and on FGFR2 was 1 to 20 nM in each case. For the same molecule, in experiment [1], the “Ba/F3 FGFR1/FGFR3 Selectivity” value came out at 13. Moreover, the IC50 was 1 to 20 nM in experiment [1] and 20 to 100 nM on FGFR1-BCR Ba/F3 cells.
As for `C[C@@H](Oc1ccc2[nH]nc(-c3cnn(C4CCN(CCO)CC4)c3)c2c1)c1c(Cl)cncc1Cl` [Example 79, 2-[4-[4-[5-[(1R)-1-(3,5-dichloro-4-pyridyl)ethoxy]-1H-indazol-3-yl]pyrazol-1-yl]-1-piperidyl]ethanol], the Kd on FGFR4, at FGFR1, at FGFR3, on FGFR3 (V555M) and at FGFR2 was 1 to 20 nM in each case. Further, the “Ba/F3 FGFR1/FGFR3 Selectivity” value in experiment [1] was determined as 14. Moreover, the IC50 lay within 1 to 20 nM in experiment [1] and 20 to 100 nM on FGFR1-BCR Ba/F3 cells.
Regarding `Cc1ncc(Cl)c([C@@H](C)Oc2ccc3[nH]nc(-c4cnn(C5CCN(C)CC5)c4)c3c2)c1Cl` [Example 80, 5-[(1R)-1-(3,5-dichloro-2-methyl-4-pyridyl)ethoxy]-3-[1-(1-methyl-4-piperidyl)pyrazol-4-yl]-1H-indazole], the Kd at FGFR4 was 100 to 300 nM; at FGFR1, 1 to 20 nM; at FGFR3, 1 to 20 nM; at FGFR3 (V555M) it was 1 to 20 nM; at FGFR2, 1 to 20 nM. Moreover, in experiment [1], the “Ba/F3 FGFR1/FGFR3 Selectivity” value worked out at 17. For the same molecule, the IC50 was 1 to 20 nM in experiment [1] and 100 to 300 nM on FGFR1-BCR Ba/F3 cells.
Regarding `C[C@@H](Oc1ccc2[nH]nc(-c3cnn(C4CCN(C(=O)CCN(C)C)CC4)c3)c2c1)c1c(Cl)cncc1Cl` [Example 82, 1-[4-[4-[5-[(1R)-1-(3,5-dichloro-4-pyridyl)ethoxy]-1H-indazol-3-yl]pyrazol-1-yl]-1-piperidyl]-3-(dimethylamino)propan-1-one], the Kd on FGFR4 fell in the range of 20 to 100 nM; on FGFR1, 1 to 20 nM; at FGFR3, 1 to 20 nM; at FGFR3 (V555M) it was 1 to 20 nM; at FGFR2, 1 to 20 nM. Moreover, the “Ba/F3 FGFR1/FGFR3 Selectivity” value in experiment [1] came out at 11. In addition, the results for the IC50 (in experiment [1]; on FGFR1-BCR Ba/F3 cells) were 1 to 20 nM and 100 to 300 nM, respectively.
Regarding `C[C@@H](Oc1ccc2[nH]nc(-c3cnn(C4CCN(C5CCC5)CC4)c3)c2c1)c1c(Cl)cncc1Cl` [Example 90, 3-[1-(1-cyclobutyl-4-piperidyl)pyrazol-4-yl]-5-[(1R)-1-(3,5-dichloro-4-pyridyl)ethoxy]-1H-indazole], the Kd is 20 to 100 nM on FGFR4; 1 to 20 nM at FGFR1; 1 to 20 nM at FGFR3; 1 to 20 nM at FGFR3 (V555M); 1 to 20 nM on FGFR2. For the same molecule, in experiment [1], the “Ba/F3 FGFR1/FGFR3 Selectivity” value was determined as 10. Further, the IC50 lay in the range of 1 to 20 nM in experiment [1] and 20 to 100 nM at FGFR1-BCR Ba/F3 cells.
